Assay [1] concerns the target T1, human recombinant adrenergic α2A receptor (Homo sapiens, UniProt P08913).
T1 construct: expressed in transfected cells; host or cells: insect Sf9 cells
T1 sequence (P08913 1-465): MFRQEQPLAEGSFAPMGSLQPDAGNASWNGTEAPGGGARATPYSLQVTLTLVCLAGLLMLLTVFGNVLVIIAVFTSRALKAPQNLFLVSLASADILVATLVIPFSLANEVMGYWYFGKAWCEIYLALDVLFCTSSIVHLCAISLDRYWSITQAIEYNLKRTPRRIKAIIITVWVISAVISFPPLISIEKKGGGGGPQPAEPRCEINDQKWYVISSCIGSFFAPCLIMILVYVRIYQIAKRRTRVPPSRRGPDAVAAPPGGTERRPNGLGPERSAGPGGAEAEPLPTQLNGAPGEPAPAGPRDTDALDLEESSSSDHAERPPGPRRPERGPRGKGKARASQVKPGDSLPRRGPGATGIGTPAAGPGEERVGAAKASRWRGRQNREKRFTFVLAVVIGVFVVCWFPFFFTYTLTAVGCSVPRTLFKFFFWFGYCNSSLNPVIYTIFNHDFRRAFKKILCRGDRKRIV
The assay can be described thus: Adrenergic α2A radioligand binding ([3H]MK-912). As to conditions: compound at 1 μM; insect Sf9 cells; read-out: Adrenergic (1 μM) α2A, percent inhibition of specific binding. On the procedure: To evaluate in radioligand binding assays the activity of compounds of the invention, human recombinant adrenergic α2A receptor expressed in insect Sf9 cells (Uhlen S et al. J Pharmacol Exp Ther. 271:1558, 1994) in a modified Tris-HCl buffer (50 mM Tris-HCl, pH 7.4, 12.5 mM MgCl2, 2 mM EDTA) was used. Compounds of invention were incubated with 1 nM [^3H]MK-912 for 60 minutes at 25° C. MK912 is (2S-trans)-1,3,4,5′,6,6′,7,12b-octahydro-1′,3′-dimethyl-spiro[2H-benzofuro[2,3-a]quinolizine-2,4′(1′H)-pyrimidin]-2′(3′H)-one hydrochloride Non-specific binding was estimated in the presence of 10 μM WB-4101 (2-(2,6-Dimethoxyphenoxyethyl)aminomethyl-1,4-benzodioxane hydrochloride). Receptor proteins were filtered and washed, the filters were then counted to determine [^3H]MK-912 specifically bound. Compounds were screened at 1 μM or lower, using 1% DMSO as vehicle. Biochemical assay results are presented as the percent inhibition of specific binding in Table 6.

For assay [2], the target named is T2, human recombinant histamine H2 receptor (Homo sapiens, UniProt P25021).
T2 construct: expressed in transfected cells; host or cells: CHO-K1 cells
The assay can be described thus: Histamine H2 radioligand binding ([125I]aminopotentidine). Particulars: compound at 1 μM; CHO K1 cells; read-out: Histamine Binding (1 μM) H2, percent inhibition of specific binding. On the procedure:
To evaluate in radioligand binding assays the activity of compounds of the invention, human recombinant histamine H2 receptor expressed in Chinese hamster ovary (CHO) K1 cells (Ruat, M., Proc. Natl. Acad. Sci. USA. 87(5):1658, 1990) in a 50 mM Phosphate buffer, pH 7.4 was used. Compounds of the invention were incubated with 0.1 nM [^125I]aminopotentidine for 120 minutes at 25° C. Non-specific binding was estimated in the presence of 3 μM Tiotidine. Receptor proteins were filtered and washed, the filters were then counted to determine [^125I]Aminopotentidine specifically bound. Compounds were screened at 1 μM, using 1% DMSO as vehicle. Biochemical assay results are presented as the percent inhibition of specific binding in Table 5.

For assay [3], the target named is T3, human recombinant serotonin (5-Hydroxytryptamine) 5-HT6 receptor (Homo sapiens, UniProt P50406).
T3 construct: expressed in transfected cells; host or cells: human HeLa cells
Nature of the assay: Serotonin 5-HT6 radioligand binding ([3H]LSD). As to conditions: compound at 1 μM; HeLa cells; read-out: Serotonin (1 μM) 5-HT6, percent inhibition of specific binding. The protocol: To evaluate in radioligand binding assays the activity of compounds of the invention, human recombinant serotonin (5-Hydroxytryptamine) 5-HT6 receptor expressed in human HeLa cells (Monsma, F. J. Jr. et al., Mol. Pharmacol. 43:320, 1993) in a modified Tris-HCl buffer (50 mM Tris-HCl, pH 7.4, 150 mM NaCl, 2 mM Ascorbic Acid, 0.001% BSA) was used. Compounds of the invention were incubated with 1.5 nM [3H]Lysergic acid diethylamide (LSD) for 120 minutes at 37° C. Non-specific binding was estimated in the presence of 5 μM Serotonin (5-HT). Receptor proteins were filtered and washed, the filters were then counted to determine [3H]LSD specifically bound. Compounds were screened at 1 μM or lower, using 1% DMSO as vehicle. Biochemical assay results are presented as the percent inhibition of specific binding in Table 7.

For assay [4], the target named is T4, human recombinant serotonin (5-Hydroxytryptamine) 5-HT2C receptor (Homo sapiens, UniProt P28335).
T4 construct: expressed in transfected cells; host or cells: CHO-K1 cells
T4 sequence (P28335 33-458): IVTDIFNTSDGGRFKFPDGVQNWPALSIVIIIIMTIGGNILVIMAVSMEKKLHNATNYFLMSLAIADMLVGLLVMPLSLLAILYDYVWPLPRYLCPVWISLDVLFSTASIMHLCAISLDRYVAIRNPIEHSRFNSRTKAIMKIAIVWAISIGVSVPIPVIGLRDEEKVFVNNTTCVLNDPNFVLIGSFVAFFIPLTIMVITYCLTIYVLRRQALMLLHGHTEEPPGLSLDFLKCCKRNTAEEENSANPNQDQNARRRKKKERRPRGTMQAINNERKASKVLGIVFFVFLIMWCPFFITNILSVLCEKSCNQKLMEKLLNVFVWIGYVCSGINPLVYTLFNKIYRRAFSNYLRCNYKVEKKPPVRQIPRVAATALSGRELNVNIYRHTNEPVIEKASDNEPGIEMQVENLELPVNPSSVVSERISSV
Nature of the assay: Serotonin 5-HT2C radioligand binding ([3H]Mesulergine). Particulars: compound at 1 μM; CHO-K1 cells; read-out: Serotonin (1 μM) 5-HT2C, percent inhibition of specific binding. On the procedure: To evaluate in radioligand binding assays the activity of compounds of the invention, human recombinant serotonin (5-Hydroxytryptamine) 5-HT2C receptor expressed in Chinese hamster ovary (CHO-K1) cells (Wolf, W. A. and Schutz, J. S., J. Neurochem. 69:1449, 1997) in a modified Tris-HCl buffer (50 mM Tris-HCl, pH 7.4, 0.1% Ascorbic Acid, 10 μM Pargyline) was used. Compounds of the invention were incubated with 1 nM [^3H]Mesulergine for 60 minutes at 25° C. Non-specific binding was estimated in the presence of 1 μM Mianserin. Receptor proteins were filtered and washed, the filters were then counted to determine [^3H]Mesulergine specifically bound. Compounds were screened at 1 μM or lower, using 1% DMSO as vehicle. Biochemical assay results are presented as the percent inhibition of specific binding in Table 7.

T2 sequence (P25021 whole entry): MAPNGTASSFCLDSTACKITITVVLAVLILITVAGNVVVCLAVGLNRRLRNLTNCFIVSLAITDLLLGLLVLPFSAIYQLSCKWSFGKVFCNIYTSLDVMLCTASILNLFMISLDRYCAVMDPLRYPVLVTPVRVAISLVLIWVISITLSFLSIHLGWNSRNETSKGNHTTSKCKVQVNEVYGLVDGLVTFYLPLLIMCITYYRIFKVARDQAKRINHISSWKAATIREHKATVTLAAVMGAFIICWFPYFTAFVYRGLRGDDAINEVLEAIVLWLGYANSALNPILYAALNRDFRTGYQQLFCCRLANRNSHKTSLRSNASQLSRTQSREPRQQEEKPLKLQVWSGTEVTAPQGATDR
T3 sequence (P50406 whole entry): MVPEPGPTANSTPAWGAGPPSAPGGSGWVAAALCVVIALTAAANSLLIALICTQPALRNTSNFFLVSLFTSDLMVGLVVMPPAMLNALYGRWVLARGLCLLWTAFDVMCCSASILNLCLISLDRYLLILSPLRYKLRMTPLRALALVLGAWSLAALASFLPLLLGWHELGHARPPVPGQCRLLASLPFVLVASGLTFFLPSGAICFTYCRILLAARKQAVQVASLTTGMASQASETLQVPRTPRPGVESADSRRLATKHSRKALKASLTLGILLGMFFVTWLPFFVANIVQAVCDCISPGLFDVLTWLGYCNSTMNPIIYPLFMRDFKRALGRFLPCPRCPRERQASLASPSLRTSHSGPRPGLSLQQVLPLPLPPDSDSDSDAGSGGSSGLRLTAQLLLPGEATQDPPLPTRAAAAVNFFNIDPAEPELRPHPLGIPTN

What is called inhibition is the drop in the measured response relative to a control, in per cent. Consider `Cc1ccc2c(c1)c1c(n2CC(N)=O)CCN(C)C1` [Compound 64, 2-(1,2,3,4-tetrahydro-2,8-dimethylpyrido[4,3-b]indol-5-yl)acetamide], for which the inhibition at 1 µM was 9% in assay [1], -3% in assay [2], 5% in assay [3] and 45% in assay [4].
On the same counts, the results for `CCOC(=O)CCn1c2c(c3cc(C)ccc31)CN(C)CC2` [CD1, ethyl 3-(1,2,3,4-tetrahydro-2,8-dimethylpyrido[4,3-b]indol-5-yl)propanoate] are 62%, 35%, 78% and 93%.
On the same counts, the results for `Cc1ccc2c(c1)c1c(n2CCC(=O)NCc2ccccc2)CCN(C)C1` [Compound 59, N-benzyl-3-(1,2,3,4-tetrahydro-2,8-dimethylpyrido[4,3-b]indol-5-yl)propanamide] are 45%, 5%, 22% and 72%.
On the same counts, the results for `CN1CCc2c(c3cc(Cl)ccc3n2CC(=O)N(C)C)C1` [Compound 48, 2-(8-chloro-1,2,3,4-tetrahydro-2-methylpyrido[4,3-b]indol-5-yl)-N,N-dimethylacetamide] are 20%, 4%, 12% and 37%.
For the compound `CC(C)OC(=O)CCn1c2c(c3cc(Cl)ccc31)CN(C)CC2` [Compound 17, isopropyl 3-(8-chloro-1,2,3,4-tetrahydro-2-methylpyrido[4,3-b]indol-5-yl)propanoate], the inhibition at 1 µM in assay [1] is 90%; in assay [2] it was 64%; in assay [3] it was 99%; in assay [4], 91%.
On the same counts, the results for `Cc1ccc2c(c1)c1c(n2CCC(=O)O)CCN(C)C1` [CD47, 3-(1,2,3,4-tetrahydro-2,8-dimethylpyrido[4,3-b]indol-5-yl)propanoic acid] are 17%, 16%, 11% and 25%.
On to `Cc1ccc2c(c1)c1c(n2CC(=O)Nc2ccc(F)cc2)CCN(C)C1` [Compound 51, N-(4-fluorophenyl)-2-(1,2,3,4-tetrahydro-2,8-dimethylpyrido[4,3-b]indol-5-yl)acetamide], for which the inhibition at 1 µM in assay [1] is 22%; in assay [2], 8%; in assay [3], 30%; in assay [4], 70%.
Turning to `CCCCOC(=O)Cn1c2c(c3cc(Cl)ccc31)CN(C)CC2` [Compound 52, butyl 2-(8-chloro-1,2,3,4-tetrahydro-2-methylpyrido[4,3-b]indol-5-yl)acetate], the inhibition at 1 µM worked out at 38% in assay [1], 23% in assay [2], 83% in assay [3] and 85% in assay [4].
Turning to `CCOC(=O)Cn1c2c(c3cc(C)ccc31)CN(C)CC2` [CD57, ethyl 2-(1,2,3,4-tetrahydro-2,8-dimethylpyrido[4,3-b]indol-5-yl)acetate], the inhibition at 1 µM was 45% in assay [1], 28% in assay [2], 67% in assay [3] and 96% in assay [4].
On the same counts, the results for `CN1CCc2c(c3cc(Cl)ccc3n2CCC(=O)N(C)C)C1` [Compound 49, 3-(8-chloro-1,2,3,4-tetrahydro-2-methylpyrido[4,3-b]indol-5-yl)-N,N-dimethylpropanamide] are 83%, 5%, 24% and 47%.
On the same counts, the results for `Cc1ccc2c(c1)c1c(n2CCNC(=O)c2ccncc2C)CCN(C)C1` [Compound 69, N-(2-(1,2,3,4-tetrahydro-2,8-dimethylpyrido[4,3-b]indol-5-yl)ethyl)-3-methylpyridine-4-carboxamide] are 25%, 14%, -4% and 24%.
On the same counts, the results for `Cc1ccc2c(c1)c1c(n2C2CCCCC2O)CCN(C)C1` (stereo not shown) [Compound 73, 2-(1,2,3,4-tetrahydro-2,8-dimethylpyrido[4,3-b]indol-5-yl)cyclohexanol] are 11%, 8%, 7% and 52%.
`Cc1ccc2c(c1)c1c(n2CCNC(=O)C2CCNCC2)CCN(C)C1` [Compound 65, N-(2-(1,2,3,4-tetrahydro-2,8-dimethylpyrido[4,3-b]indol-5-yl)ethyl)piperidine-4-carboxamide]: the inhibition at 1 µM in assay [1] was 17%; in assay [2] it was -7%; in assay [3], 3%; in assay [4] it was 24%.
On the same counts, the results for `CN1CCc2c(c3cc(Cl)ccc3n2CC(=O)NC2CCCC2)C1` [Compound 27, 2-(8-chloro-1,2,3,4-tetrahydro-2-methylpyrido[4,3-b]indol-5-yl)-N-cyclopentylacetamide] are 12%, 5%, 13% and 28%.
On the same counts, the results for `CN1CCc2c(c3cc(Cl)ccc3n2CC(=O)OC2CCCC2)C1` [Compound 15] are 67%, 47%, 96% and 94%.
On the same counts, the results for `Cc1ccc2c(c1)c1c(n2CCC(=O)NC(C)C)CCN(C)C1` [Compound 53] are 54%, 12%, 22% and 51%.
